This test relates to C. parvum strain UGA1. Briefly: C. parvum growth inhibition assay (Nluc luminescence in HCT-8 cells). To be noted: Cryptosporidium parvum; for inhibition at 1 µM / inhibition at 10 µM: HCT-8; for inhibition at 1 µM: read-out: % inh @ 1 uM C. parvum; for inhibition at 10 µM: read-out: % inh @ 10 uM C. parvum; for EC50: HCT-8, 48 h, C. parvum growth inhibition in HCT-8 cells, 48 hours, 6 concentrations 10-0.04 μM. Format: cell-based, Cryptosporidium parvum. The method, then:
C. parvum GROWTH INHIBITION ASSAYS
C. parvum growth inhibition was performed as described in Hulverson M A, Vinayak S, Choi R, Schaefer D A, Castellanos-Gonzalez A, Vidadala R S R, Brooks C F, Herbert G T, Betzer D P, Whitman G R, Sparks H N, Arnold S L M, Rivas K L, Barrett L K, White A C Jr, Maly D J, Riggs M W, Striepen B, Van Voorhis W C, Ojo K K. Bumped-Kinase Inhibitors for Cryptosporidiosis Therapy. J Infect Dis. 2017 Apr. 15; 215(8):1275-1284.
C. parvum strain UGA1 […] (ATCC, Manassas, VA) were prepared as described below. HCT-8 cells were inoculated onto 96-well plates were grown for 48 hours to 90%-100% confluence. C. parvum oocysts were then incubated for 10 minutes in 10% bleach at room temperature and washed with Dulbecco's phosphate-buffered saline. One thousand oocysts per well were applied to plates with Roswell Park Memorial Institute 1640 (RPMI) medium supplemented with 10% horse serum and 1% penicillin/streptomycin. Compounds of Formula (I), Formula (II), and Formula (III) were added to the plates at different concentrations and the plates were incubated for 48 hours. Following the incubation, the monolayers were lysed for 1 hour before a luciferase reagent was added, and relative luminescence units were determined.
For certain compounds of Formula I, Formula II, and Formula III, EC50 values were calculated using curves calculated from Prism after analysis of C. parvum growth inhibition at 6 different concentrations: 10, 3.33, 1.11, 0.37, 0.12, and 0.04 μM. […] For certain compounds of Formula I, Formula II, and Formula III, single point inhibition values of 0-33% (activity level D), between 33% and 66% (activity level E), and between 67% and 100% (activity level F) are also shown in Table 1 below.

Where [1] appears, read: single point inhibition @ 10 uM.
The mark [2] stands for this setting: single point inhibition at 1 uM.
The mark [3] stands for this setting: single point inhibition at 10 uM.

This is an account of results in patent US20240124444A1 (Celgene Corporation, priority 2020, published 2024).

The term EC50 denotes the midpoint of the concentration-response curve. High values mean weaker potency, low ones greater potency.

Read-outs that look alike come from different tables or passages of the source. Where only a bound is given, the exact number is not on record here.

`CC(C)n1cc(C(=O)Nc2cc3[nH]c(-c4ccncc4)cc3cn2)cn1` [Example 162, 1-isopropyl-N-(2-(pyridin-4-yl)-1H-pyrrolo[3,2-c]pyridin-6-yl)-1H-pyrazole-4-carboxamide]: the inhibition at 1 µM (single point inhibition @ 1 uM) is 0 to 33%. For the same molecule, under setting [1], the inhibition at 10 µM is 67 to 100%. As for `Cn1cc(C(=O)Nc2cc3[nH]c(-c4ccnc(OCCC(F)(F)F)n4)cc3cn2)cn1` [Example 213, 1-methyl-N-(2-(2-(3,3,3-trifluoropropoxy)pyrimidin-4-yl)-1H-pyrrolo[3,2-c]pyridin-6-yl)-1H-pyrazole-4-carboxamide], the inhibition at 1 µM under setting [2] lay within 0 to 33%. In addition, under setting [3], the inhibition at 10 µM lay within 67 to 100%.

Consider `N#Cc1cc2cnc(NC(=O)C3CC3)cc2[nH]1` [Example 180, N-(2-cyano-1H-pyrrolo[3,2-c]pyridin-6-yl)cyclopropanecarboxamide], for which the inhibition at 1 µM (single point inhibition @ 1 uM) lay within 0 to 33%. Moreover, under setting [1], the inhibition at 10 µM was 67 to 100%. On the same counts, the results for `Cc1cc(-c2cc3cnc(NC(=O)OC4CCCC4)cc3[nH]2)ccn1` [Example 170, cyclopentyl 2-(2-methylpyridin-4-yl)-1H-pyrrolo[3,2-c]pyridin-6-ylcarbamate] are 0 to 33% and 67 to 100%. As for `Cc1cc(-c2cc3cnc(NC(=O)C45CC(C4)C5)cc3[nH]2)ccn1` [Example 298, N-(2-(2-methylpyridin-4-yl)-1H-pyrrolo[3,2-c]pyridin-6-yl)bicyclo[1.1.1]pentane-1-carboxamide], the inhibition at 1 µM under setting [2] lay in the range of 0 to 33%. Further, the inhibition at 10 µM under setting [3] lay within 0 to 33%. For the molecule `FC(F)(F)CNc1nccc(-c2cc3cnc(NC4CCC4)cc3[nH]2)n1` [Example 373, N-cyclobutyl-2-(2-(2,2,2-trifluoroethylamino)pyrimidin-4-yl)-1H-pyrrolo[3,2-c]pyridin-6-amine], the EC50 fell in the range of 0.5 to 1 µM. `COCCOc1ccc(C(=O)Nc2cc3[nH]c(-c4ccnc(OC)n4)cc3cn2)cc1OC` [Example 252, 3-methoxy-4-(2-methoxyethoxy)-N-(2-(2-methoxypyrimidin-4-yl)-1H-pyrrolo[3,2-c]pyridin-6-yl)benzamide]: the inhibition at 1 µM under setting [2] was in the range of 0 to 33%. Also, the inhibition at 10 µM under setting [3] lay in the range of 0 to 33%. As for `Cc1cc(-c2cc3cnc(Nc4cccc(-c5nc[nH]n5)c4)cc3[nH]2)cc(N)n1` [Example 150, N-(3-(1H-1,2,4-triazol-3-yl)phenyl)-2-(2-amino-6-methylpyridin-4-yl)-1H-pyrrolo[3,2-c]pyridin-6-amine], the inhibition at 1 µM (single point inhibition @ 1 uM) was 0 to 33%. Besides, under setting [1], the inhibition at 10 µM was in the range of 67 to 100%.

The molecule `Cc1cc(-c2cc3cnc(NC4CCN(C)CC4)cc3n2C)ncn1` [Example 117, 1-methyl-N-(1-methylpiperidin-4-yl)-2-(6-methylpyrimidin-4-yl)-1H-pyrrolo[3,2-c]pyridin-6-amine] registered an EC50 greater than 1 µM. `Cn1c(-c2cc(C(F)(F)F)ncn2)cc2cnc(NC3CCOCC3)cc21` [Example 392, 1-methyl-N-(tetrahydro-2H-pyran-4-yl)-2-(6-(trifluoromethyl)pyrimidin-4-yl)-1H-pyrrolo[3,2-c]pyridin-6-amine]: the EC50 was greater than 1 µM.

`Cn1c(-c2ccnc(NCC(F)(F)F)n2)cc2cnc(NC3CCCOC3)cc21` (stereo in doubt) [Example 386, (R)-1-methyl-N-(tetrahydro-2H-pyran-3-yl)-2-(2-(2,2,2-trifluoroethyl)amino)pyrimidin-4-yl)-1H-pyrrolo[3,2-c]pyridin-6-amine] showed an EC50 greater than 1 µM.

Take `CC(C)C(=O)Nc1cc2[nH]c(-c3ccncc3)cc2cn1` [Example 78, N-(2-(pyridin-4-yl)-1H-pyrrolo[3,2-c]pyridin-6-yl)isobutyramide]: the EC50 is greater than 1 µM. Where the note is “single point inhibition @ 1 uM”, the inhibition at 1 µM lay within 33 to 66%. The inhibition at 10 µM under setting [1] is 67 to 100%. `CN1CCC(c2cc3cnc(NC(=O)C4CC4)cc3[nH]2)CC1` [Example 255, N-(2-(1-methylpiperidin-4-yl)-1H-pyrrolo[3,2-c]pyridin-6-yl)cyclopropanecarboxamide]: under setting [2], the inhibition at 1 µM lay in the range of 0 to 33%. The inhibition at 10 µM under setting [3] was 0 to 33%. On to `COc1nccc(-c2cc3cnc(NC(=O)c4cnn(C)c4)cc3n2C)n1` [Example 256, N-(2-(2-methoxypyrimidin-4-yl)-1-methyl-1H-pyrrolo[3,2-c]pyridin-6-yl)-1-methyl-1H-pyrazole-4-carboxamide], for which the inhibition at 1 µM under setting [2] lay in the range of 0 to 33%. For the same molecule, under setting [3], the inhibition at 10 µM is 0 to 33%. As to `O=C(Nc1cc2[nH]c(-c3ccnc(C(F)(F)F)n3)cc2cn1)C1C2CCCC21` (stereo not shown) [Example 199, N-(2-(2-(trifluoromethyl)pyrimidin-4-yl)-1H-pyrrolo[3,2-c]pyridin-6-yl)bicyclo[3.1.0]hexane-6-carboxamide], the inhibition at 1 µM under setting [2] lay in the range of 0 to 33%. In addition, under setting [3], the inhibition at 10 µM lay within 67 to 100%. In turn, `COc1nccc(-c2cc3cnc(NC4CCOCC4)cc3[nH]2)n1` [Example 62, 2-(2-methoxypyrimidin-4-yl)-N-(tetrahydro-2H-pyran-4-yl)-1H-pyrrolo[3,2-c]pyridin-6-amine] registered an EC50 greater than 1 µM. For `Cc1cccc(-c2cc3cnc(NC4CCOCC4)cc3[nH]2)c1` [Example 352, N-(tetrahydro-2H-pyran-4-yl)-2-m-tolyl-1H-pyrrolo[3,2-c]pyridin-6-amine], the EC50 was greater than 1 µM. On the same count and under the same terms, to `CC(C)c1cc2cnc(NC3CCOCC3)cc2[nH]1` [Example 359, 2-isopropyl-N-(tetrahydro-2H-pyran-4-yl)-1H-pyrrolo[3,2-c]pyridin-6-amine] belongs greater than 1 µM; to `COc1nccc(-c2cc3cnc(NC(=O)C4CC4)cc3n2CCO)n1` [Example 343, N-(1-(2-hydroxyethyl)-2-(2-methoxypyrimidin-4-yl)-1H-pyrrolo[3,2-c]pyridin-6-yl)cyclopropanecarboxamide], greater than 1 µM. On the same count and under the same terms, to `c1cc(-c2cc3cnc(NC4CCOCC4)cc3[nH]2)nc(N2CCCC2)n1` [Example 372, 2-(2-(pyrrolidin-1-yl)pyrimidin-4-yl)-N-(tetrahydro-2H-pyran-4-yl)-1H-pyrrolo[3,2-c]pyridin-6-amine] belongs less than 0.5 µM. `CN(CC(F)(F)F)c1nccc(-c2cc3cnc(NC4CCOCC4)cc3n2C)n1` [Example 30, 1-Methyl-2-(2-(methyl(2,2,2-trifluoroethyl)amino)pyrimidin-4-yl)-N-(tetrahydro-2h-pyran-4-yl)-1H-pyrrolo[3,2-c]pyridin-6-amine] had an EC50 greater than 1 µM. Moreover, the inhibition at 1 µM (single point inhibition @ 1 uM) was in the range of 0 to 33%. `Cc1cc(C(=O)Nc2cc3[nH]c(-c4ccncc4)cc3cn2)nn1C` [Example 282, 1,5-dimethyl-N-(2-(pyridin-4-yl)-1H-pyrrolo[3,2-c]pyridin-6-yl)-1H-pyrazole-3-carboxamide]: the inhibition at 1 µM under setting [2] lay in the range of 0 to 33%. In addition, the inhibition at 10 µM under setting [3] was in the range of 0 to 33%.

`Cc1cc(-c2cc3cnc(NCC4CC4)cc3[nH]2)ccn1` [Example 67, N-(cyclopropylmethyl)-2-(2-methylpyridin-4-yl)-1H-pyrrolo[3,2-c]pyridin-6-amine]: the EC50 is greater than 1 µM. For the molecule `CN(C(=O)c1cnn(C)c1)c1cc2[nH]c(-c3ccnc(NCC(F)(F)F)n3)cc2cn1` [Example 257, N,1-dimethyl-N-(2-(2-(2,2,2-trifluoroethylamino)pyrimidin-4-yl)-1H-pyrrolo[3,2-c]pyridin-6-yl)-1H-pyrazole-4-carboxamide], under setting [2], the inhibition at 1 µM lay in the range of 0 to 33%. The inhibition at 10 µM under setting [3] fell in the range of 0 to 33%. As for `COc1nccc(-c2cc3cnc(NC(=O)c4cnn(C5CCCC5)c4)cc3[nH]2)n1` [Example 183, 1-cyclopentyl-N-(2-(2-methoxypyrimidin-4-yl)-1H-pyrrolo[3,2-c]pyridin-6-yl)-1H-pyrazole-4-carboxamide], where the note is “single point inhibition @ 1 uM”, the inhibition at 1 µM lay within 0 to 33%. In addition, the inhibition at 10 µM under setting [1] lay in the range of 67 to 100%. As for `Cn1cnc(-c2cc3cnc(NC4CCOCC4)cc3[nH]2)c1` [Example 123, 2-(1-methyl-1H-imidazol-4-yl)-N-(tetrahydro-2H-pyran-4-yl)-1H-pyrrolo[3,2-c]pyridin-6-amine], the EC50 is greater than 1 µM. As for `CC(C)n1cc(C(=O)Nc2cc3[nH]c(-c4ccnc(N(C)CC(F)(F)F)n4)cc3cn2)cn1` [Example 232, 1-isopropyl-N-(2-(2-(methyl(2,2,2-trifluoroethyl)amino)pyrimidin-4-yl)-1H-pyrrolo[3,2-c]pyridin-6-yl)-1H-pyrazole-4-carboxamide], the inhibition at 1 µM under setting [2] was 0 to 33%. Also, the inhibition at 10 µM under setting [3] is 33 to 66%.

For `Cn1cc(-c2cc3cnc(NC4CCOCC4)cc3n2C)cn1` [Example 223, 1-methyl-2-(1-methyl-1H-pyrazol-4-yl)-N-(tetrahydro-2H-pyran-4-yl)-1H-pyrrolo[3,2-c]pyridin-5-amine], the inhibition at 1 µM under setting [2] was in the range of 0 to 33%. Also, the inhibition at 10 µM under setting [3] was in the range of 33 to 66%.
